Measurements from publication PMC11721293 (JCI Insight, 2025).
“And” between values parts separate entries of the source, which are not always exact repeats. Equal values may be shown once. Read-outs that look alike come from different tables or passages of the source.

Experiments:
in vitro = settings: African green monkey
SARS-CoV-2 = format: cell-based; parameters: TOA: unit not given here
SARS-CoV-2-nLUC [1] = assay: microbe, parasite or virus in culture; format: cell-based; settings: for EC50: Severe acute respiratory syndrome coronavirus 2, Vero C1008, 24 h, VeroE6, 24 h, Fig 1G, Fig 5B, read-out: EC50
SARS-CoV-2-nLUC [2] = format: cell-based; settings: Nirmatrelvir 5 uM, Lonafarnib 0 uM
SARS-CoV-2-nLUC [3] = format: cell-based
[4] = system: SARS-CoV-2 strain USA-WA1/2020; format: in vivo, mouse; settings: mouse, in vivo
[5] = system: SARS-CoV-2 strain USA-WA1/2020; format: in vivo, mouse; settings: mouse, in vivo; remark: listed apart in the source
[6] = system: FTase (HDJ2 farnesylation); assay: HDJ2 electrophoretic mobility shift (Western blot); format: cell-based; settings: 24 h treatment
viral RdRp = viral RdRp (Severe acute respiratory syndrome coronavirus 2, UniProt P0DTD1); assay: In vitro RdRp activity assay (RNA extension); format: biochemical, SARS-CoV-2; settings: LNF 0.1, 1 and 10 μM; TEMPOL 100 μM

For `Cn1cncc1[C@@](N)(c1ccc(Cl)cc1)c1ccc2c(c1)c(-c1cccc(Cl)c1)cc(=O)n2C` [Tipifarnib, tipifarnib], the CC50 at 24 h (in vitro) was over 30 µM, the “time-of-addition result” value (SARS-CoV-2) was “modest effect on the early stage of infection, while the efficacy was much higher in the late stage” and the TOA (SARS-CoV-2; treatment window (0,2)) was 76.7425 and 75.484 and 113.203 and 99.7613 and 81.3458 and 84.3089 and 102.68 and 108.689. For the same compound, the TOA (SARS-CoV-2; treatment window (-2,0)) was 92.86 and 92.659 and 88.2304 and 87.5224 and 122.157 and 114.273 and 92.7843 and 93.347, the TOA (SARS-CoV-2; treatment window (-2,2)) was 31.6226 and 35.7452 and 33.0851 and 30.5839 and 34.705 and 34.7924 and 25.2067 and 23.5518 and the EC50 (SARS-CoV-2-nLUC [1]) was 8.86 µM. The Replication (SARS-CoV-2-nLUC [1]; Tipifarnib, log concentration 0.273001) was 115.708 and 115.2 and 116.296 and 113.383, the Replication (SARS-CoV-2-nLUC [1]; Tipifarnib, log concentration 0.875061) was 62.3306 and 62.0856 and 61.494 and 61.1331 and the Replication (SARS-CoV-2-nLUC [1]; Tipifarnib, log concentration -0.630089) was 101.05 and 102.091 and 101.412 and 103.944. For the same compound, the Replication (SARS-CoV-2-nLUC [1]; Tipifarnib, log concentration -1.23215) was 100.484 and 100.389 and 101.92 and 99.313.
In the case of `CC(C)(C)[C@H](NC(=O)C(F)(F)F)C(=O)N1C[C@H]2[C@@H]([C@H]1C(=O)N[C@H](C#N)C[C@@H]1CCNC1=O)C2(C)C` [NRTV, nirmatrelvir], the Response (SARS-CoV-2-nLUC [2]) is reported as 21.0635 and 36.2768 and 23.2893, the Response (SARS-CoV-2-nLUC [3]) is reported as 96.7462 and 94.1773 and 94.981 and the Response (SARS-CoV-2-nLUC [3]; Lonafarnib 0 uM, Nirmatrelvir 0.3125 uM, sheet S3B, replicates) is reported as 50.9786 and 35.7701 and 31.2174. For the same compound, the Response (SARS-CoV-2-nLUC [3]; Lonafarnib 0 uM, Nirmatrelvir 0.625 uM, sheet S3B, replicates) was 89.9445 and 77.1784 and 77.0959, the Response (SARS-CoV-2-nLUC [3]; Lonafarnib 0 uM, Nirmatrelvir 2.5 uM, sheet S3B, replicates) was 97.3124 and 96.7918 and 96.5986 and the Response (SARS-CoV-2-nLUC [3]; Lonafarnib 0 uM, Nirmatrelvir 5 uM, sheet S3B, replicates) was 97.4859 and 97.2147 and 96.9835.
With `CCC(CC)COC(=O)[C@H](C)N[P@](=O)(OC[C@H]1O[C@@](C#N)(c2ccc3c(N)ncnn23)[C@H](O)[C@@H]1O)Oc1ccccc1` [RDV, Remdesivir] the “composite clinical score” value [4] was “much improved disease parameters”, the “time-of-addition result” value (SARS-CoV-2) was “minimal effect when added for a limited duration at early time points, but showed maximum efficacy when it was added later after infection” and the “lung viral titer” value [5] was “did not show much reduction in viral titers”.
For `COC(=O)[C@H](CCSC)NC(=O)c1ccc(NC[C@@H](N)CS)cc1-c1ccccc1` [FTI-277], the CC50 at 24 h (in vitro) was 220 µM, the “anti-FTase activity, HDJ2 shift” value [6] was “weaker anti-FTase activity” and the “time-of-addition result” value (SARS-CoV-2) was “modest effect on the early stage of infection, while the efficacy was much higher in the late stage”. For the same compound, the TOA (SARS-CoV-2; treatment window (0,24)) was 1.616 and 2.237 and 1.147 and 1.155 and 1.238 and 1.196 and 1.435, the TOA (SARS-CoV-2; treatment window (2,4)) was 73.8837 and 74.2661 and 52.3189 and 51.5089 and 53.0507 and 54.4857 and 76.2725 and 76.8029 and the TOA (SARS-CoV-2; treatment window (-2,0)) was 151.258 and 149.655 and 121.084 and 123.07 and 140.174 and 141.115 and 96.719 and 94.1082. The TOA (SARS-CoV-2; treatment window (-2,2)) was 54.1321 and 53.7538 and 48.4664 and 48.121 and 49.0338 and 47.603 and 41.7688 and 40.1735, the Replication (SARS-CoV-2-nLUC [1]; FTI-277, log concentration 0.670941) was 89.119 and 77.5271 and 84.1138 and 103.187 and the Replication (SARS-CoV-2-nLUC [1]; FTI-277, log concentration 1.273) was 92.4526 and 80.5819 and 108.059 and 113.995. The Replication (SARS-CoV-2-nLUC [1]; FTI-277, log concentration 1.87506) was 83.8498 and 84.554 and 94.5905 and 116.747, the Replication (SARS-CoV-2-nLUC [1]; FTI-277, log concentration -0.232149) was 89.4553 and 85.664 and 88.5087 and 105.35 and the EC50 (SARS-CoV-2-nLUC [1]) was 110 µM.
With `CC1(C)CC(O)CC(C)(C)N1[O]` [TEMPOL] the “polymerase activity, primer extension” value (viral RdRp) was “inhibited”.
